Reference: US20100069499A1 (priority 2007, published 2010)

Tests used:
Sclerotinia sclerotiorum = assay: Test of preventive effect on cucumber stem rot; type: in vivo; conditions: cucumber (Sagamihanjiro), foliage application 500 ppm, 4 days at 18° C. and high humidity
Description: (§1) The controlling effect was evaluated by visually observing the area or a lesion spots on each of test plants at the time of investigation and comparing the area of lesion spots on a plant treated with the compound of the present invention with that on an untreated plant.
Each of plastic pots was filled with sandy loam and sown with cucumber (variety; Sagamihanjiro), followed by growing in a greenhouse for 12 days. The compound 2 of the present invention was formulated into a flowable formulation according to Formulation Example 6. The flowable formulation was diluted to a predetermined concentration (500 ppm) with water, and foliage application of the dilution was carried out so that the dilution adhered sufficiently to the surfaces of leaves of the grown cucumber young seedling. After the foliage application, the plant was air-dried and a PDA medium containing mycelia of Sclerotinia sclerotiorum was placed on the surfaces of the cucumber leaves. After the inoculation, the plant was grown at 18° C. and high humidity for 4 days. Then, the area of lesion spots was investigated.

Fusarium culmorum = assay: Test of preventive effect on wheat Fusarium blight; type: in vivo; conditions: wheat (Shirogane), foliage application 500 ppm, 4 days darkness and high humidity at 23° C. then 3 days lighting
Description: as §1
Each of plastic pots was filled with sandy loam and sown with wheat (cultivar; Shirogane), followed by growing in a greenhouse for 10 days. The compound 1 of the present invention was formulated into a flowable formulation according to Formulation Example 6. The flowable formulation was diluted to a predetermined concentration (500 ppm) with water, and foliage application of the dilution was carried out so that the dilution adhered sufficiently to the surfaces of leaves of the grown wheat young seedling. After the foliage application, the plant was air-dried and then inoculated by spraying a water suspension of spores of Fusarium culmorum. After the inoculation, the plant was held under darkness and high humidity conditions at 23° C. for 4 days and held under lighting conditions for 3 days, and then the area of lesion spots was investigated.

| SMILES | area of lesion spots on the treated plant relative to that on an untreated plant (Sclerotinia sclerotiorum) [%] | area of lesion spots on the treated plant relative to that on an untreated plant (Fusarium culmorum) [%] |
| --- | --- | --- |
| C#CCOc1c(F)cc(C(=O)NC2CCCCC2C)cc1Cl (centres unmarked) [compound 2, N-(2-methylcyclohexyl)-3-chloro-5-fluoro-4-(2-propynyloxy)benzamide] | ≤ 30 |  |
| C#CCOc1c(F)cc(C(=O)NCC2CCCCC2)cc1Cl [compound 1, N-(cyclohexylmethyl)-3-chloro-5-fluoro-4-(2-propynyloxy)benzamide] |  | ≤ 30 |
